In brackets after ≈: the same amount, converted by molar mass. Square brackets hold non-standard residues; d marks the D form. Peptide text beside a SMILES is read from it. βAla = NCCC(=O)O
Experiments:
Staphylococcus aureus [1] = assay: Antibacterial activity against Staphylococcus aureus ATCC 25923 assessed as reduction in bacterial growth incubated for 18 to 20 hrs by Mueller Hinton broth dilution method; assay type: functional; details: time 18-20 hrs
Bacillus subtilis = assay: Antibacterial activity against Bacillus subtilis ATCC 23857 assessed as reduction in bacterial growth incubated for 18 to 20 hrs by Mueller Hinton broth dilution method; assay type: functional; details: time 18-20 hrs
Escherichia coli [2] = assay: Antibacterial activity against Escherichia coli ATCC 25922 assessed as reduction in bacterial growth incubated for 18 to 20 hrs by Mueller Hinton broth dilution method; assay type: functional; details: time 18-20 hrs
Pseudomonas aeruginosa [3] = assay: Antibacterial activity against Pseudomonas aeruginosa ATCC 27853 assessed as reduction in bacterial growth incubated for 18 to 20 hrs by Mueller Hinton broth dilution method; assay type: functional; details: time 18-20 hrs
Klebsiella pneumoniae [4] = assay: Antimicrobial activity against Klebsiella pneumoniae assessed as reduction in bacterial growth incubated for 18 to 20 hrs by Mueller-Hinton broth based microdilution method; assay type: functional; details: time 18-20 hrs
Erythrocyte [5] = assay: Hemolytic activity in mouse Red blood cells incubated for 1 hr by microplate reader assay; assay type: toxicity, cell-based; details: erythrocyte, 1 h
Staphylococcus aureus [6] = assay: Antibacterial activity against Staphylococcus aureus ATCC 25923 assessed as reduction in bacterial growth incubated for 18 to 24 hrs by broth microdilution method; assay type: functional; details: time 18-24 hrs
Escherichia coli [7] = assay: Antibacterial activity against Escherichia coli ATCC 25922 assessed as reduction in bacterial growth by broth microdilution method; assay type: functional
[8] = Hemolytic activity in human RBC; assay type: toxicity, cell-based, Erythrocyte; details: red blood cells
Staphylococcus aureus [9] = assay: Antibacterial activity against Staphylococcus aureus ATCC 25923 assessed as reduction in bacterial cell growth incubated for 18 hrs by two fold serial microdilution method; assay type: functional
[10] = test system: Staphylococcus epidermidis; assay: Antibacterial activity against Staphylococcus epidermidis ATCC 12228 assessed as reduction in bacterial cell growth incubated for 18 hrs by two fold serial microdilution method; assay type: functional
Escherichia coli [11] = assay: Antibacterial activity against Escherichia coli ATCC 25922 assessed as reduction in bacterial cell growth incubated for 18 hrs by two fold serial microdilution method; assay type: functional
Pseudomonas aeruginosa [12] = assay: Antibacterial activity against Pseudomonas aeruginosa ATCC 27853 assessed as reduction in bacterial cell growth incubated for 18 hrs by two fold serial microdilution method; assay type: functional
Klebsiella pneumoniae [13] = assay: Antibacterial activity against Klebsiella pneumoniae ATCC 700603 assessed as reduction in bacterial cell growth incubated for 18 hrs by two fold serial microdilution method; assay type: functional
Acinetobacter baumannii = assay: Antibacterial activity against Acinetobacter baumannii ATCC 19606 assessed as inhibition in bacterial growth incubated for 20 to 24 hrs by CLSI based broth microdilution method; assay type: functional; details: time 20-24 hrs
Erythrocyte [14] = assay: Hemolytic activity in mouse Red blood cells incubated for 1 hr; assay type: toxicity, cell-based

| SMILES | MIC (Staphylococcus aureus [6]) | MIC (Escherichia coli [7]) | MIC (Staphylococcus aureus [9]) | MIC [10] | MIC (Escherichia coli [11]) | MIC (Pseudomonas aeruginosa [12]) | MIC (Klebsiella pneumoniae [13]) | MIC (Acinetobacter baumannii) | MIC (Staphylococcus aureus [1]) | MIC (Bacillus subtilis) | MIC (Escherichia coli [2]) | MIC (Pseudomonas aeruginosa [3]) | MIC (Klebsiella pneumoniae [4]) | HC10 (Erythrocyte [5]) | HC50 [8] | HC10 (Erythrocyte [14]) |
| --- | --- | --- | --- | --- | --- | --- | --- | --- | --- | --- | --- | --- | --- | --- | --- | --- |
| CC[C@H](C)[C@H](NC(=O)[C@H](CCCNC(=N)N)NC(=O)[C@H](CCCCN)NC(=O)[C@@H](CC(C)C)NC(=O)[C@@H](CC(C)C)NC(=O)CN)C(=O)N[C@@H](CCCCN)C(=O)N[C@H](C(=O)N[C@@H](CC(C)C)C(=O)N[C@@H](CC(C)C)C(N)=O)[C@@H](C)O |  |  |  |  |  |  |  |  | > 256 µM | 16 µM (≈ 18.5 µg/mL) | 128 µM (≈ 148 µg/mL) | 8 µM (≈ 9.23 µg/mL) | > 256 µM | > 300 µM |  |  |
| CC[C@H](C)[C@H](NC(=O)[C@H](CCCNC(=N)N)NC(=O)[C@H](CCCCN)NC(=O)[C@H](CC(C)C)NC(=O)[C@H](CC(C)C)NC(=O)CN)C(=O)NCCC(=O)N[C@H](C(=O)N[C@@H](CC(C)C)C(=O)N[C@@H](CC(C)C)C(N)=O)[C@@H](C)O (H-GLLKRI[βAla]TLL-NH2) |  |  | 64 µM (≈ 70.2 µg/mL) | 32 µM (≈ 35.1 µg/mL) | 64 µM (≈ 70.2 µg/mL) | 32 µM (≈ 35.1 µg/mL) | 128 µM (≈ 140 µg/mL) | > 128 µM |  |  |  |  |  |  |  | > 256 µM |
| CC[C@H](C)[C@H](NC(=O)CCNC(=O)[C@H](CCCCN)NC(=O)[C@H](CC(C)C)NC(=O)[C@H](CC(C)C)NC(=O)CN)C(=O)N[C@@H](CCCCN)C(=O)N[C@H](C(=O)N[C@@H](CC(C)C)C(=O)N[C@@H](CC(C)C)C(N)=O)[C@@H](C)O (H-GLLK[βAla]IKTLL-NH2) |  |  | > 128 µM | 32 µM (≈ 34.2 µg/mL) | > 128 µM | 16 µM (≈ 17.1 µg/mL) | > 128 µM | > 128 µM |  |  |  |  |  |  |  | > 256 µM |
| CC[C@H](C)[C@H](NC(=O)[C@H](CCCNC(=N)N)NC(=O)CCNC(=O)[C@H](CC(C)C)NC(=O)[C@H](CC(C)C)NC(=O)CN)C(=O)N[C@@H](CCCCN)C(=O)N[C@H](C(=O)N[C@@H](CC(C)C)C(=O)N[C@@H](CC(C)C)C(N)=O)[C@@H](C)O (H-GLL[βAla]RIKTLL-NH2) |  |  | > 128 µM | 64 µM (≈ 70.2 µg/mL) | 128 µM (≈ 140 µg/mL) | 32 µM (≈ 35.1 µg/mL) | > 128 µM | > 128 µM |  |  |  |  |  |  |  | > 256 µM |
| CC[C@H](C)[C@H](NC(=O)[C@H](CCCNC(=N)N)NC(=O)[C@H](CCCCN)NC(=O)CCNC(=O)[C@H](CC(C)C)NC(=O)CN)C(=O)N[C@@H](CCCCN)C(=O)N[C@H](C(=O)N[C@@H](CC(C)C)C(=O)N[C@@H](CC(C)C)C(N)=O)[C@@H](C)O (H-GL[βAla]KRIKTLL-NH2) |  |  | > 128 µM | > 128 µM | > 128 µM | 32 µM (≈ 35.6 µg/mL) | > 128 µM | > 128 µM |  |  |  |  |  |  |  | > 256 µM |

More lines, main results first:

| MIC (Staphylococcus aureus [6]) | MIC (Escherichia coli [7]) | MIC (Staphylococcus aureus [9]) | MIC [10] | MIC (Escherichia coli [11]) | MIC (Pseudomonas aeruginosa [12]) | MIC (Klebsiella pneumoniae [13]) | MIC (Acinetobacter baumannii) | SMILES | MIC (Staphylococcus aureus [1]) | MIC (Bacillus subtilis) | MIC (Escherichia coli [2]) | MIC (Pseudomonas aeruginosa [3]) | MIC (Klebsiella pneumoniae [4]) | HC10 (Erythrocyte [5]) | HC50 [8] | HC10 (Erythrocyte [14]) |
| --- | --- | --- | --- | --- | --- | --- | --- | --- | --- | --- | --- | --- | --- | --- | --- | --- |
| 7.1 µM (≈ 7.98 µg/mL) | 14.3 µM (≈ 16.1 µg/mL) |  |  |  |  |  |  | CC[C@H](C)[C@H](NC(=O)[C@H](CCCNC(=N)N)NC(=O)[C@H](CCCCN)NC(=O)[C@H](CC(C)C)NC(=O)[C@H](CC(C)C)NC(=O)CN)C(=O)N[C@@H](CCCCN)C(=O)N[C@@H](C)C(=O)N[C@@H](CC(C)C)C(=O)N[C@@H](CC(C)C)C(N)=O (H-GLLKRIKALL-NH2) |  |  |  |  |  |  | 86.5 µM |  |
|  |  | > 128 µM | > 128 µM | > 128 µM | > 128 µM | > 128 µM | > 128 µM | CC[C@H](C)[C@H](NC(=O)[C@H](CCCNC(=N)N)NC(=O)[C@H](CCCCN)NC(=O)[C@H](CC(C)C)NC(=O)[C@H](CC(C)C)NC(=O)CN)C(=O)N[C@@H](CCCCN)C(=O)N[C@H](C(=O)N[C@@H](CC(C)C)C(=O)NCCC(N)=O)[C@@H](C)O (H-GLLKRIKTL[βAla]-NH2) |  |  |  |  |  |  |  | > 256 µM |
|  |  | > 128 µM | > 128 µM | > 128 µM | > 128 µM | > 128 µM | > 128 µM | CC[C@H](C)[C@H](NC(=O)[C@H](CCCNC(=N)N)NC(=O)[C@H](CCCCN)NC(=O)[C@H](CC(C)C)NC(=O)[C@H](CC(C)C)NC(=O)CN)C(=O)N[C@@H](CCCCN)C(=O)N[C@H](C(=O)NCCC(=O)N[C@@H](CC(C)C)C(N)=O)[C@@H](C)O (H-GLLKRIKT[βAla]L-NH2) |  |  |  |  |  |  |  | > 256 µM |
|  |  | 128 µM (≈ 144 µg/mL) | 16 µM (≈ 18 µg/mL) | 32 µM (≈ 36 µg/mL) | 4 µM (≈ 4.49 µg/mL) | 128 µM (≈ 144 µg/mL) | > 128 µM | CC[C@H](C)[C@H](NC(=O)[C@H](CCCNC(=N)N)NC(=O)[C@H](CCCCN)NC(=O)[C@H](CC(C)C)NC(=O)[C@H](CC(C)C)NC(=O)CN)C(=O)N[C@@H](CCCCN)C(=O)NCCC(=O)N[C@@H](CC(C)C)C(=O)N[C@@H](CC(C)C)C(N)=O (H-GLLKRIK[βAla]LL-NH2) |  |  |  |  |  |  |  | > 256 µM |
|  |  | > 128 µM | > 128 µM | > 128 µM | > 128 µM | > 128 µM | > 128 µM | CC(C)C[C@H](NC(=O)[C@H](CC(C)C)NC(=O)[C@@H](NC(=O)[C@H](CCCCN)NC(=O)CCNC(=O)[C@H](CCCNC(=N)N)NC(=O)[C@H](CCCCN)NC(=O)[C@H](CC(C)C)NC(=O)[C@H](CC(C)C)NC(=O)CN)[C@@H](C)O)C(N)=O (H-GLLKR[βAla]KTLL-NH2) |  |  |  |  |  |  |  | > 256 µM |
